In US10428083B2, “Heterocyclylmethyl-thienouracile as antagonists of the adenosine-A2B-receptor” (BAYER PHARMA AKTIENGESELLSCHAFT, priority 2015, dated 2019):

Molecular target: human adenosine A2b receptor (Homo sapiens (Human), UniProt P29275)
Assay: Cellular in vitro reporter gene test for A2b receptor activity (CHO-K1, CRE-luciferase, NECA stimulation)
Assay type: cell-based
Details: recombinant CHO-K1 cell line, CRE-luciferase reporter, antagonism of EC50 concentration of NECA; in some cases means of several determinations, rounded to two significant figures; read-out: A2b receptor IC50
Method in brief: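 CHO-K1 cells with CRE-driven luciferase; antagonists co-incubated with NECA at its EC50, determined in a pre-experiment on each test day. Luciferase read by luminescence 3 h after NECA addition.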

Sequence of human adenosine A2b receptor (P29275 whole entry): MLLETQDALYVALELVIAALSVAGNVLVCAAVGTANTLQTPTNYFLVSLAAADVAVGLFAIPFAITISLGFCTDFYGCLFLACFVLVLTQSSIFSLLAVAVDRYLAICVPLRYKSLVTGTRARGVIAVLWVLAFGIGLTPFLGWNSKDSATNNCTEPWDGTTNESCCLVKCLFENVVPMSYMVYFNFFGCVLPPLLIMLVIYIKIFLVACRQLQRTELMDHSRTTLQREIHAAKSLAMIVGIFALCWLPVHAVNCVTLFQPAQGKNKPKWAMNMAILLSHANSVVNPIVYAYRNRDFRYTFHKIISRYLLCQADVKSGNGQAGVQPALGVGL

`Cc1c(CN2CCNC(=O)C2=O)sc2c1c(=O)n(CC(F)(F)F)c(=O)n2CC1CCO1` (racemic) [Example 123, 6-[(2,3-Dioxopiperazin-1-yl)methyl]-5-methyl-1-(oxetan-2-ylmethyl)-3-(2,2,2-trifluoroethyl)thieno[2,3-d]pyrimidine-2,4(1H,3H)-dione] was tested, and the IC50 was 53 nM.
In the case of `CCn1c(=O)c2c(C)c(Cn3cc[nH]c3=O)sc2n(CC2CCCO2)c1=O` (single isomer, unassigned) [Example 244, 3-Ethyl-5-methyl-6-[(2-oxo-2,3-dihydro-1H-imidazol-1-yl)methyl]-1-(tetrahydrofuran-2-ylmethyl)thieno[2,3-d]pyrimidine-2,4(1H,3H)-dione], the IC50 is reported as 13 nM.
For `COCCn1c(=O)c2c(C)c(CN3CCNC3=NC#N)sc2n(CC2CCO2)c1=O` (single isomer, unassigned) [Example 365, [1-{[3-Methoxyethyl-5-methyl-1-(oxetan-2-ylmethyl)-2,4-dioxo-1,2,3,4-tetrahydrothieno[2,3-d]pyrimidin-6-yl]methyl}imidazolidin-2-ylidene]cyanamide], the IC50 was 110 nM.
`CCCn1c(=O)c2c(C)c(CN3CCNC3=O)sc2n(CCOC)c1=O` [Example 84, 1-(2-Methoxyethyl)-5-methyl-6-[(2-oxoimidazolidin-1-yl)methyl]-3-propylthieno[2,3-d]pyrimidine-2,4(1H,3H)-dione] was tested, and the IC50 was 3.9 nM.
For `Cc1c(CN2CCNC2=NC#N)sc2c1c(=O)n(C(C)C)c(=O)n2CC1CCO1` (single isomer, unassigned) [Example 265, [1-{[3-Isopropyl-5-methyl-1-(oxetan-2-ylmethyl)-2,4-dioxo-1,2,3,4-tetrahydrothieno[2,3-d]pyrimidin-6-yl]methyl}imidazolidin-2-ylidene]cyanamide], the IC50 was 14 nM.
`CCn1c(=O)c2c(C)c(CN3CCNC3=S)sc2n(CC2CCCO2)c1=O` (racemic) [Example 35, 3-Ethyl-5-methyl-1-(tetrahydrofuran-2-ylmethyl)-6-[(2-thioxoimidazolidin-1-yl)methyl]thieno[2,3-d]pyrimidine-2,4(1H,3H)-dione (racemate)] showed an IC50 of 6.3 nM.
In the case of `CCn1c(=O)c2c(C)c(Cn3cc[nH]c3=O)sc2n(CCC(F)(F)F)c1=O` [Example 241, 3-Ethyl-5-methyl-6-[(2-oxo-2,3-dihydro-1H-imidazol-1-yl)methyl]-1-(3,3,3-trifluoropropyl)thieno[2,3-d]pyrimidine-2,4(1H,3H)-dione], the IC50 is reported as 1.2 nM.
Molecule `CCn1c(=O)c2c(C(F)F)c(CN3CCNC3=O)sc2n(CCOC)c1=O` [Example 101, 5-(Difluoromethyl)-3-ethyl-1-(2-methoxyethyl)-6-[(2-oxoimidazolidin-1-yl)methyl]thieno[2,3-d]pyrimidine-2,4(1H,3H)-dione] has an IC50 of 12 nM.
Work on `COCCn1c(=O)c2c(C)c(CN3CCNC3=NC#N)sc2n(CC2CCCO2)c1=O` (single isomer, unassigned) [Example 369, [1-{[3-(2-Methoxyethyl)-5-methyl-2,4-dioxo-1-(tetrahydrofuran-2-ylmethyl)-1,2,3,4-tetrahydrothieno[2,3-d]pyrimidin-6-yl]methyl}imidazolidin-2-ylidene]cyanamide] yielded an IC50 of 33 nM.
Molecule `COCCn1c(=O)c2c(C)c(CN3CCNC3=NC#N)sc2n(CCC(F)(F)F)c1=O` [Example 362, [1-{[3-(2-Methoxyethyl)-5-methyl-2,4-dioxo-1-(3,3,3-trifluoropropyl)-1,2,3,4-tetrahydrothieno[2,3-d]pyrimidin-6-yl]methyl}imidazolidin-2-ylidene]cyanamide] has an IC50 of 9.4 nM.
With `CCn1c(=O)c2c(C)c(CN3CCNC3=S)sc2n(CCCF)c1=O` [Example 29, 3-Ethyl-1-(3-fluoropropyl)-5-methyl-6-[(2-thioxoimidazolidin-1-yl)methyl]thieno[2,3-d]pyrimidine-2,4(1H,3H)-dione] the IC50 was 4.1 nM.
Work on `CCCN1CCN(Cc2sc3c(c2C)c(=O)n(CCc2ccccc2)c(=O)n3CCOC)C1=O` [Example 240, 1-(2-Methoxyethyl)-5-methyl-6-[(2-oxo-3-propylimidazolidin-1-yl)methyl]-3-(2-phenylethyl)thieno[2,3-d]pyrimidine-2,4(1H,3H)-dione] yielded an IC50 of 19 nM.
`Cc1c(CN2CCNC2=O)sc2c1c(=O)n(CC(F)(F)F)c(=O)n2CC1CCO1` (single isomer, unassigned) [Example 207, 5-Methyl-1-(oxetan-2-ylmethyl)-6-[(2-oxoimidazolidin-1-yl)methyl]-3-(2,2,2-trifluoroethyl)thieno[2,3-d]pyrimidine-2,4(1H,3H)-dione] gave an IC50 of 43 nM.
In the case of `CCn1c(=O)c2c(C)c(CN3CCNC3=NC(=O)OC)sc2n(CC2CCCO2)c1=O` (single isomer, unassigned) [Example 376, Methyl [1-{[3-ethyl-5-methyl-2,4-dioxo-1-(tetrahydrofuran-2-ylmethyl)-1,2,3,4-tetrahydrothieno[2,3-d]pyrimidin-6-yl]methyl}imidazolidin-2-ylidene]carbamate], the IC50 is reported as 7.9 nM.
For `Cc1c(CN2CCNC2=S)sc2c1c(=O)n(CC(C)C)c(=O)n2CCC(F)(F)F` [Example 38, 3-Isobutyl-5-methyl-6-[(2-thioxoimidazolidin-1-yl)methyl]-1-(3,3,3-trifluoropropyl)thieno[2,3-d]pyrimidine-2,4(1H,3H)-dione], the IC50 was 1.9 nM.
Molecule `Cc1c(CN2CCNC(=O)C2=O)sc2c1c(=O)n(CC(F)(F)F)c(=O)n2C` [Example 124, 6-[(2,3-Dioxopiperazin-1-yl)methyl]-1,5-dimethyl-3-(2,2,2-trifluoroethyl)thieno[2,3-d]pyrimidine-2,4(1H,3H)-dione] has an IC50 of 60 nM.
`COCCn1c(=O)c2c(C)c(CN3CCNC3=NC#N)sc2n(CC2CCCO2)c1=O` (racemic) [Example 367, [1-{[3-(2-Methoxyethyl)-5-methyl-2,4-dioxo-1-(tetrahydrofuran-2-ylmethyl)-1,2,3,4-tetrahydrothieno[2,3-d]pyrimidin-6-yl]methyl}imidazolidin-2-ylidene]cyanamide] showed an IC50 of 33 nM.
Molecule `Cc1c(CN2CCNC2=NC#N)sc2c1c(=O)n(CC(F)(F)F)c(=O)n2CC1CCCO1` (racemic) [Example 269, [1-{[5-Methyl-2,4-dioxo-1-(tetrahydrofuran-2-ylmethyl)-3-(2,2,2-trifluoroethyl)-1,2,3,4-tetrahydrothieno[2,3-d]pyrimidin-6-yl]methyl}imidazolidin-2-ylidene]cyanamide] has an IC50 of 24 nM.
`Cc1c(CN2CCNC2=S)sc2c1c(=O)n(CC(F)F)c(=O)n2CC1CCCO1` (single isomer, unassigned) [Example 164, 3-(2,2-Difluoroethyl)-5-methyl-1-(tetrahydrofuran-2-ylmethyl)-6-[(2-thioxoimidazolidin-1-yl)methyl]thieno[2,3-d]pyrimidine-2,4(1H,3H)-dione] gave an IC50 of 17 nM.
Molecule `Cc1c(CN2CCNC(=O)C2=O)sc2c1c(=O)n(CC(F)(F)F)c(=O)n2CC1CCCO1` (single isomer, unassigned) [Example 489, 6-[(2,3-Dioxopiperazin-1-yl)methyl]-5-methyl-1-(tetrahydrofuran-2-ylmethyl)-3-(2,2,2-trifluoroethyl)thieno[2,3-d]pyrimidine-2,4(1H,3H)-dione] has an IC50 of 27 nM.
Work on `COCCn1c(=O)n(C(C)C)c(=O)c2c(C)c(Cn3nc[nH]c3=O)sc21` [Example 254, 3-Isopropyl-1-(2-methoxyethyl)-5-methyl-6-[(5-oxo-4,5-dihydro-1H-1,2,4-triazol-1-yl)methyl]thieno[2,3-d]pyrimidine-2,4(1H,3H)-dione] yielded an IC50 of 34 nM.
`CCn1c(=O)c2c(C)c(Cn3nc[nH]c3=O)sc2n(CF)c1=O` [Example 352, 3-Ethyl-1-(fluoromethyl)-5-methyl-6-[(5-oxo-4,5-dihydro-1H-1,2,4-triazol-1-yl)methyl]thieno[2,3-d]pyrimidine-2,4(1H,3H)-dione] gave an IC50 of 48 nM.
`Cc1c(Cn2nc[nH]c2=O)sc2c1c(=O)n(C(C)C(F)(F)F)c(=O)n2CCC(F)(F)F` (racemic) [Example 437, 5-Methyl-6-[(5-oxo-4,5-dihydro-1H-1,2,4-triazol-1-yl)methyl]-3-(1,1,1-trifluoropropan-2-yl)-1-(3,3,3-trifluoropropyl)thieno[2,3-d]pyrimidine-2,4(1H,3H)-dione] showed an IC50 of 48 nM.
In the case of `CCOCCn1c(=O)n(CC(F)F)c(=O)c2c(C)c(CN3CCNC3=S)sc21` [Example 161, 3-(2,2-Difluoroethyl)-1-(2-ethoxyethyl)-5-methyl-6-[(2-thioxoimidazolidin-1-yl)methyl]thieno[2,3-d]pyrimidine-2,4(1H,3H)-dione], the IC50 is reported as 8.5 nM.
`Cc1c(CN2CCNC2=O)sc2c1c(=O)n(CC(F)(F)F)c(=O)n2CC1CCO1` (single isomer, unassigned) [Example 208, 5-Methyl-1-(oxetan-2-ylmethyl)-6-[(2-oxoimidazolidin-1-yl)methyl]-3-(2,2,2-trifluoroethyl)thieno[2,3-d]pyrimidine-2,4(1H,3H)-dione] showed an IC50 of 8.9 nM.
For `CCn1c(=O)c2c(C)c(CN3CCNC3=O)sc2n(CC2CCO2)c1=O` (single isomer, unassigned; enantiomer 2) [Example 67, 3-Ethyl-5-methyl-1-(oxetan-2-ylmethyl)-6-[(2-oxoimidazolidin-1-yl)methyl]thieno[2,3-d]pyrimidine-2,4(1H,3H)-dione (Enantiomer 2)], the IC50 was 29 nM.
Molecule `Cc1c(CN2CCNC(=O)C2=O)sc2c1c(=O)n(CC(F)F)c(=O)n2CCC(F)(F)F` [Example 125, 3-(2,2-Difluoroethyl)-6-[(2,3-dioxopiperazin-1-yl)methyl]-5-methyl-1-(3,3,3-trifluoropropyl)thieno[2,3-d]pyrimidine-2,4(1H,3H)-dione] has an IC50 of 8.8 nM.
`Cc1c(CN2CCNC2=O)sc2c1c(=O)n(CC(F)F)c(=O)n2CC1CCO1` (single isomer, unassigned) [Example 218, 3-(2,2-Difluoroethyl)-5-methyl-1-(oxetan-2-ylmethyl)-6-[(2-oxoimidazolidin-1-yl)methyl]thieno[2,3-d]pyrimidine-2,4(1H,3H)-dione] showed an IC50 of 22 nM.
